Converted amounts (≈) assume the structure as drawn.
Experiments:
[1] = system: GTPase KRas (Homo sapiens), P01116 [G12C]; assay: Displacement of [acrylamide-2,3-3H2]-N-(3-fluoro-4-(2-methyl-3-(5-methyl-1H- indazole-4-yl)-1H-pyrrolo[ 2,3-b]pyridin-1-yl)-phenyl from KRAS G12C mutant (unknown origin) assessed as ratio of Kinact/Ki by competitive scintillation proximity assay
[2] = system: GTPase KRas (Homo sapiens), P01116 [G12C]; assay: In vivo target occupancy at KRAS G12C mutant in human MIA PaCa-2 cells xenografted mouse assessed as decrease in […] expression at 30 mg/kg, po after 24 hrs; type: functional, organism-based
[3] = AUC in human MIA PaCa-2 cells xenografted mouse at 30 mg/kg, po; type: ADME, organism-based; parameters: dose 30 mg/kg, route po; details: in vivo
[4] = system: GTPase KRas (Homo sapiens), P01116 [G12C]; assay: In vivo target occupancy at KRAS G12C mutant in human MIA PaCa-2 cells xenografted mouse assessed as decrease in free KRAS G12C level at 30 mg/kg, po after 3 hrs; type: functional, organism-based
[5] = system: GTPase KRas (Homo sapiens), P01116 [G12C]; assay: In vivo target occupancy at KRAS G12C mutant in human MIA PaCa-2 cells xenografted mouse assessed as decrease in free KRAS G12C level at 30 mg/kg, po after 24 hrs; type: functional, organism-based
[6] = Aqueous solubility of compound in pH 6.8; type: physicochemical; details: aqueous medium
[7] = system: GTPase KRas (Homo sapiens), P01116 [G12C]; assay: In vivo target occupancy at KRAS G12C mutant in human MIA PaCa-2 cells xenografted mouse assessed as decrease in […] expression at 30 mg/kg, po after 3 hrs; type: functional, organism-based
[8] = Cmax in human MIA PaCa-2 cells xenografted mouse at 30 mg/kg, po; type: ADME, organism-based; parameters: dose 30 mg/kg, route po; details: in vivo
[9] = Lipophilicity, logD of compound at pH 7.4; type: physicochemical; details: buffer
GTPase KRas = GTPase KRas (Homo sapiens, UniProt P01116, G12C); assay: Inhibition of KRAS G12C mutant in human NCI-H358 cells assessed as reduction in ERK phosphorylation incubated for 6 hrs by MSD assay; type: cell-based
[10] = Cysteine reactivity in pH 7.4 phosphate buffer assessed as compound half life at 2 uM in presence of GSH
[11] = Half life in human MIA PaCa-2 cells xenografted mouse at 100 mg/kg, po; type: ADME, organism-based; details: in vivo
[12] = system: GTPase KRas (Homo sapiens), P01116 [G12C]; assay: In vivo target occupancy at KRAS G12C mutant in human MIA PaCa-2 cells xenografted mouse assessed as decrease in free KRAS G12C level at 100 mg/kg, po after 3 hrs; type: functional, organism-based
[13] = Drug concentration in human MIA PaCa-2 cells xenografted mouse blood at 100 mg/kg, po after 40 mins; type: ADME, organism-based; details: whole blood, read-out: Drug uptake
[14] = system: GTPase KRas (Homo sapiens), P01116 [G12C]; assay: In vivo target occupancy at KRAS G12C mutant in human MIA PaCa-2 cells xenografted mouse assessed as decrease in free KRAS G12C level at 100 mg/kg, po after 24 hrs; type: functional, organism-based
[15] = Apparent permeability across apical to basolateral side in MDCK-MDR1 cells at 10 uM after 2 hrs by LC-MS/MS analysis; type: ADME, cell-based, Canis lupus familiaris; details: dog

Row | SMILES | Ratio [1] | solubility [6] | logD [9] | IC50 (GTPase KRas) | T1/2 [10] | other results
1 | C=CC(=O)Nc1ccc(-n2nc(C(C)C)c(-c3c(C)ccc4[nH]ncc34)c2C)cc1 | 0.6 mM⁻¹ s⁻¹ | – | – | – | – | –
2 | C=CC(=O)N1CC2(CC(n3nc(-c4ccc5c(cnn5CCOC)c4)c(-c4c(Cl)c(C)cc5[nH]ncc45)c3C)C2)C1 | 190 mM⁻¹ s⁻¹ | 10 µM (≈ 5.7 µg/mL) | 4.5 | 8 nM | – | Occ [2]: 100%; AUC [3]: 1.5 µM·h; Occ [4]: 100%; Occ [5]: 100%; Occ [7]: 100%; Cmax [8]: 600 nM
3 | C=CC(=O)Nc1ccc(-n2nc(C(C)C)c(-c3c(C)ccc4[nH]ncc34)c2C)c(C)c1 | 1.7 mM⁻¹ s⁻¹ | – | – | 1500 nM | 1.78 h | –
4 | C=CC(=O)Nc1ccc(-n2nc(C)c(-c3c(C)ccc4[nH]ncc34)c2C)c(F)c1 | 0.5 mM⁻¹ s⁻¹ | – | – | – | 0.5 h | –
5 | C=CC(=O)N1CC2(CC(n3nc(-c4ccccc4)c(-c4c(Cl)c(C)cc5[nH]ncc45)c3C)C2)C1 | 60 mM⁻¹ s⁻¹ | 10 µM (≈ 4.72 µg/mL) | 4.9 | 20 nM | – | half-life [11]: 2.5 h; Occ [12]: 20%; concentration at 40 min [13]: 4000 nM; Occ [14]: 40%
6 | C=CC(=O)N1CC2(CC(n3nc(-c4ccc5[nH]ncc5c4)c(-c4c(Cl)c(C)cc5[nH]ncc45)c3C)C2)C1 | 116 mM⁻¹ s⁻¹ | 10 µM (≈ 5.12 µg/mL) | 4.6 | 20 nM | – | Papp A→B at 2 h, 10 µM [15]: 0.6 ×10⁻⁶ cm/s
